In patent US20150196580A1, “USE OF DEFIBROTIDE FOR THE INHIBITION OF HEPARANASE” (GENTIUM SPA, priority 2006, published 2015):
“Also recorded” adds a separate entry of the source.

What was measured:
Heparanase = target: T1, Heparanase (Homo sapiens, UniProt Q9Y251); test: Heparanase activity assay (Heparan Degrading Enzyme Assay Kit) in U266 extracts; format: cell-based; details: U266 cells, DF 50, 100 and 150 μg/ml, 24 h, vs saline control, triplicate
T1 construct: The Heparanase activity was measured in U266 extracts (1×10^5 Cell/ml of extraction buffer) by a commercial Heparan Degrading Enzyme Kit; endogenous in cells; host or cells: U266 myeloma cells (cell extract)
T1 sequence (Q9Y251 158-543 limits assumed): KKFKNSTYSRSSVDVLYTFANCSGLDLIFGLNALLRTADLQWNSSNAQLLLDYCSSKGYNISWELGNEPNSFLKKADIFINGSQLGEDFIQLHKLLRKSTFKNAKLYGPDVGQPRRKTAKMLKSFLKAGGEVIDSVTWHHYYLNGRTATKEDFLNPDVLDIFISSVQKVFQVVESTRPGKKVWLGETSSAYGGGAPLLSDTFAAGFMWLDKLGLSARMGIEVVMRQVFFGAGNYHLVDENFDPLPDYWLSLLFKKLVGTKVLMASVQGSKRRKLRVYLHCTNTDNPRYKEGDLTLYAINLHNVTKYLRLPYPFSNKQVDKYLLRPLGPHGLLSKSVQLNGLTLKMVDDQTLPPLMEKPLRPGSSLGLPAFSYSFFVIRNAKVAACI
T1 sequence (Q9Y251 36-109 limits assumed): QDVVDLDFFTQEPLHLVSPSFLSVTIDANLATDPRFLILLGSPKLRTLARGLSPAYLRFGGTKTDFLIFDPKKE
Method: (§1) To evaluate the effect of DF either on Heparanase expression and its activity, the U266 and HMEC cells were incubated for 24 h with DF at different concentrations or saline (control cells). After incubation with Defibrotide, the cells were washed with phosphate-buffered saline (PBS) pH 7.4, and different U266 and HMEC samples were prepared for different experiments.
The Heparanase activity was measured in U266 extracts (1×10^5 Cell/ml of extraction buffer) by a commercial Heparan Degrading Enzyme Kit (Takara-bio Inc.) according to manufacturer's instruction. The U266 cells have been treated with saline (control) or DF at doses of 50, 100 and 150 μg/ml for 24 h.
Heparan Degrading Enzyme Assay Kit measure the activity of heparan degrading enzyme in cultured cells, utilizing the property that heparan-like molecules and bFGF (basic fibroblast growth factor) combine each other. CBD-FGF is a fusion protein of cell-binding domain of human fibronectin and human fibroblast growth factor (Takara-bio Inc.). […]
The activity of Heparanase were measured using the Heparanse Degrading Enzyme Assay kit on U266 cells treated with saline (control) or Defibrotide at dose of 50, 100 and 150 μg/ml. The experiments were performed in triplicate and the activity of Heparanase is shown with decrease of absorbance.

[1] = tested on: Heparanase gene expression; test: Real-Time PCR of Heparanase gene expression in U266 myeloma cells; format: cell-based; details: DF 150 and 400 μg/ml, 24 h, vs saline control, triplicate
Method: as §1
(§2) RNA has been isolated from U266 and HMEC cells (1.5×10^5 Cells/ml) treated with saline (control) or DF at doses of 150 and 400 μg/ml for 24 h. To isolate the RNA were used the RNeasy Mini Kit from Qiagen according the manufacture's instructions.
(§3) The 1% agarose gel electrophoresis, stained with Ethidium Bromide, was performed on all samples to check for presence of clear 28S and 18S ribosomal subunit bands. […]
(§4) In order to perform the Real Time PCR was used the SYBER Green PCR Master Mix Reagent (SYBER Green PCR--Bio-Rad). Direct detection of polymerase chain reaction (PCR) product was monitored by measuring the increase in fluorescence caused by the binding of SYBER Green to double-stranded DNA. […]
Real-Time PCR was performed on cDNAs prepared from U266 cells treated with saline (control) or DF at dose of 150 and 400 μg/ml. The experiments were performed in triplicate and the results are expressed as mRNA levels normalized by the housekeeping actin gene.

[2] = tested on: Heparanase gene expression; test: Real-Time PCR of Heparanase gene expression in HMEC cells; format: cell-based, human; details: DF 150 μg/ml, 24 h, vs saline control, triplicate
Method: as §1, §2, §3, §4
Real-Time PCR was performed on cDNAs prepared from HMEC cells treated with saline (control) or DF at dose of 150 μg/ml. The experiments were performed in triplicate and the results are expressed as mRNA levels normalized by the housekeeping actin gene.

Substance: defibrotide [DF]
- Effect on enzymatic activity of Heparanase (shown with decrease of absorbance) (Heparanase): interferes on the Heparanase activity in the myeloma cell line; also recorded: decrease of its enzymatic activity
- Effect on Heparanase gene expression (mRNA levels normalized by the housekeeping actin gene) [1]: acts on U266 myeloma cells line through altering the Heparanase gene expression; also recorded: down regulation of Heparanase gene
- Effect on Heparanase gene expression (mRNA levels normalized by the housekeeping actin gene) [2]: acts on Microvascular endothelial cells through altering the Heparanase gene expression; also recorded: downregulation of Heparanase gene expression on HMEC cells
